Data set [1] can be described thus: Fluorescence of coating films made from different hydrophobic polymers (PMMA, PLGA, PLC). The data set is classed as physicochemical. Particulars: PLGA or PLC, FIG. 10A, 10B. The protocol: The coating films based on ICG are prepared as control.
Coating films made from different polymers were also tested.

Data set [2] in a line: NIR fluorescence of coated stainless steel wires (fluorescent image system). The data set is classed as physicochemical. Particulars: PMMA film, dye 1 wt %; coated 1, 2, 3 or 5 times; FIG. 1. How it is done: Polymethylmethacrylate is dissolved at 30 mg/ml in acetonitrile.
At this step the fiducial is ready to use.

We go through two molecules from patent US12291654B2, “Fluorescent polymeric coating film for medical devices” (UNIVERSITE DE STRASBOURG, priority 2018, dated 2025).

As for `CCCCCCCCCCCCCCCCCCN1/C(=C/C=C/C=C/C=C/C2=[N+](CCCCCCCCCCCCCCCCCC)c3ccc4ccccc4c3C2(C)C)C(C)(C)c2c1ccc1ccccc21` [Cy7.5-C18-TPB, Dioctadecylcyanine 7.5 tetraphenylborate], the “brightness of coating films, different polymers” value in data set [1] is on record as “better brightness than a coating film based on ICG”. Besides, in data set [2], the “NIR fluorescence of coating film on stainless steel wire” value was “visible after the first coating and increases by multiple coating”.

Take `CCCCCCCCCCCCCCCCCCN1/C(=C/C=C2\CCCC(/C=C/C3=[N+](CCCCCCCCCCCCCCCCCC)c4ccc5ccccc5c4C3(C)C)=C2Oc2c(-c3ccccc3)cccc2-c2ccccc2)C(C)(C)c2c1ccc1ccccc21.[I-]` [HA-06-I]: the “brightness of coating films, different polymers” value in data set [1] was “better brightness than a coating film based on ICG”.
